The subject of test [1] is activated platelets (125I-fibrinogen binding). As to the kind of experiment: Fibrinogen Binding (125I-fibrinogen binding to activated platelets). The conditions noted are these: read-out: Binding (IC50, concentration of compound which provides 50% fibrinogen binding); thrombin-stimulated platelets; 0.15 μM 125I-fibrinogen. How it is done:
The compounds of the invention as identified above are evaluated for platelet aggregation inhibition activity as indicated by the percentage of nonaggregated platelets which are available for binding in accordance with the following procedure.
Briefly, 40 mL of PRP (obtained from Biological Specialty Corp., Lansdale, Pa.) are centrifuged at 120×g to remove contaminating red cells. Aspirin (50 μM) is added and the PRP is incubated at 37° C. for 20 minutes. […] Platelets are concentrated by a 300×g centrifugation (10 minutes) and the pellet is resuspended in 4 mL. of Tyrode's buffer. The platelet suspension (4 mL) is gel-filtered through a Sepharose-2B column (50 mL bed volume). […] The binding reaction is performed in polystyrene tubes (final volume […]). Reagents are added in the following order: 80 mL of Tyrode's buffer, 50 mL of CaCl2 (final concentration (f.c.) […]) and 50 mL of thrombin (f.c. 0.1 unit/mL). The platelet suspension is then added and the mixture is allowed to incubate at room temperature for 2 minutes. Hirudin (50 mL, f.c. 0.5 unit/mL) is immediately added to prevent the catalytic activity of thrombin. […] The mixture is incubated for 10 minutes at room temperature. To terminate the binding reaction the platelets are sedimented (10,000×g for 3 minutes) through silicone oil (3:1 hi-phenol 550/methyl silicone 200, W. F. Nye, Inc., New Bedford, Mass.), in an Eppendorf centrifuge.
The amount of platelet radioactivity measured in the presence of nonlabeled fibrinogen (4 mg/mL) is considered the nonspecific binding. All samples are repeated in triplicate.
Positive percentages of fibrinogen binding indicates higher activity for inhibiting platelet aggregation since only non-aggregated or free platelets are available for fibrinogen binding.

Test [2] relates to platelets (gel-filtered platelet rich plasma). As to the kind of experiment: Platelet Aggregation Inhibition Activity (agonist thrombin or ADP, light transmission). The test is classed as cell-based. The following applies: for inhibition at 20 µM: Homo sapiens, thrombin or ADP agonist, read-out: Aggregation (percentage increase in light transmission).
Procedure: The percentage of platelet aggregation is calculated as an increase in light transmission of drug treated platelet concentrate versus control treated platelet concentrate. Blood is obtained from drug free, normal donors into tubes containing 0.13M sodium citrate (two sources are routinely used: platelet concentrate obtained from Biological Specialty Corp., Lansdale, Pa. or whole blood obtained from donors). Platelet rich plasma (PRP) is collected by centrifugation of the concentrate or whole blood at 130×g for 15 minutes at 25° C. The PRP (5 mL) is gel filtered through Sepharose 2B (bed volume 50 mL), and the platelet count is adjusted to 2×10^7 platelets per sample. The following constituents are added to a siliconized cuvette: 250 μL of the concentrated platelet filtrate, 100 μL of Tyrode's buffer (0.14M NaCl, 0.0027M KCl, 0.012M NaHCO3, 0.76 mM Na2 HPO4, 0.0055M glucose and 2 mg/mL BSA pH 7.4), 50 μL of 2 mM calcium and test drug (50 mL).
Aggregation is monitored in a dual channel Chrono-log Aggregometer for three minutes following the addition of agonist (thrombin 50 μL of 1 unit/mL, or ADP 50 μL of 100 μM). The final assay volume is 500 μL. The reaction takes place at 37° C. The peak aggregation response is calculated as the increase in light transmission units over a three minute period. The difference of the increase in light transmission between control and drug treated platelets is then expressed as a percent of the nondrug treated controls. […] A percentage increase in light transmission indicates platelet aggregation inhibition activity for the tested compound.
The mark [3] stands for this setting: read-out: Aggregation (IC50, concentration at which the increase in light transmission equals 50%), thrombin or ADP agonist, 37° C., three minutes.

Structures can show the parent of a compound that is named as a salt. Where two headings read alike, the source gives them in different places.

Take `CCCNCCCNC(=O)c1cnn(-c2nc(-c3cccc(C(F)(F)F)c3)cs2)c1C(F)(F)F` [Example 114]: the IC50 in test [1] is 10 µM; in test [2] (setting [3]), 7 µM.
Regarding `CN1CCN(CCCNC(=O)c2cnn(-c3nc(-c4cccc(C(F)(F)F)c4)cs3)c2-c2ccccc2)CC1` [Example 120], the IC50 in test [1] amounted to 23 µM; in test [2] (setting [3]), 13 µM.
The matching figures for `NCCCNC(=O)c1cnn(-c2nc(-c3cccc(C(F)(F)F)c3)cs2)c1C(F)(F)F` [Example 121, 2-[4-(3-Aminopropylcarbamoyl)-5-(trifluoromethyl)pyrazol-1-yl]-4-(3-trifluoromethylphenyl)thiazole Monohydrochloride]: 15 µM and 6 µM.
The matching figures for `NCCCNC(=O)c1cnn(-c2nc(-c3cccc(Cl)c3)cs2)c1C(F)(F)F` [Example 122]: 10 µM and 14.7 µM.
The matching figures for `Cc1ccc(-c2csc(-n3ncc(C(=O)NCCCN)c3C(F)(F)F)n2)cc1` [Example 123]: 17 µM and 17 µM.
On to `NCCCNC(=O)c1cnn(-c2nc(-c3cccc(C(F)(F)F)c3)c(Br)s2)c1C(F)(F)F` [Example 124], for which the IC50 is 5.5 µM in test [1] and 3.2 µM in test [2] (setting [3]).
Turning to `N=C(N)NCCCNC(=O)c1cnn(-c2nc(-c3cccc(C(F)(F)F)c3)cs2)c1C(F)(F)F` [Example 128, 2-[4-(3-Guanidinopropylcarbamoyl)-5-(trifluoromethyl)-pyrazol-1-yl]-4-(3-trifluoromethylphenyl)thiazole Nitrate], the IC50 in test [1] worked out at 17.5 µM; in test [2] (read-out: Aggregation (IC50, concentration at which the increase in light transmission equals 50%)), 118 µM.
For the compound `FC(F)(F)c1cccc(-c2csc(-n3ncc(COCCCN4CCCCC4)c3C(F)(F)F)n2)c1` [Example 136, 2-[4-[3-(N-Piperidino)propoxymethyl]-5-(trifluoromethyl)pyrazol-1-yl]-4-(3-trifluoromethylphenyl)thiazole Oxalate], the IC50 came out at 17 µM in test [1] and 21 µM in test [2] (setting [3]).
On the same counts, the results for `CCN(CC)CCCNC(=O)c1ccc(-c2csc(-c3ccc(C(F)(F)F)cc3)n2)cc1` [Example 150] are 4.4 µM and 5 µM.
On the same counts, the results for `CCN(CC)CCCNC(=O)c1ccc(-c2csc(-c3ccc(C)cc3)n2)cc1` [Example 151] are 19 µM and 16.7 µM.
The matching figures for `CCN(CC)CCCNC(=O)c1ccc(-c2csc(-c3ccc(C(C)(C)C)cc3)n2)cc1` [Example 153]: 4.3 µM and 15.3 µM.
`Cc1ccc(-c2nc(-c3ccc(C(=O)NCCCN(C)C)cc3)cs2)cc1` [Example 154]: the figures for the IC50 in test [1] and in test [2] (setting [3]) were 10 µM and 7.2 µM, respectively.
The matching figures for `CN(C)CCCNC(=O)c1ccc(-c2csc(-c3ccc(C(C)(C)C)cc3)n2)cc1` [Example 156]: 12 µM and 14.2 µM.
The matching figures for `O=C(NCCN1CCCCC1)c1ccc(-c2csc(-c3ccccc3)n2)cc1` [Example 158]: 5.2 µM and 8.7 µM.
As to `Cc1ccc(-c2nc(-c3ccc(C(=O)NCCCN4CCCC4=O)cc3)cs2)cc1` [Example 170], the IC50 in test [1] is 10.8 µM. Besides, in test [2], the inhibition at 20 µM came out at 90%.
Take `CN(C)CCNC(=O)c1ccc(-c2csc(-c3ccc(C(F)(F)F)cc3)n2)cc1` [Example 174]: the IC50 in test [1] was found to be 1.8 µM. Also, in test [2], the inhibition at 20 µM turned out to be 85%.
For the compound `CCN(CC)CCNC(=O)c1ccc(-c2csc(-c3ccc(C)cc3)n2)cc1` [Example 176], the IC50 in test [1] was 2.5 µM; in test [2] (setting [3]), 4 µM.
The matching figures for `CCN(CC)CCCCNC(=O)c1ccc(-c2csc(-c3ccc(Cl)cc3)n2)cc1` [Example 179]: 2.7 µM and 5.8 µM.
The matching figures for `NCCNC(=O)c1ccc(-c2csc(-c3ccc(C(F)(F)F)cc3)n2)cc1` [Example 196]: 6 µM and 3.7 µM.
The matching figures for `O=C(NCCCBr)c1ccc(-c2csc(-c3ccc(C(F)(F)F)cc3)n2)cc1` [Example 209]: 7.8 µM and 5.5 µM.
Regarding `O=C(NCCCN1CCCCC1)c1ccc(-c2csc(-c3ccc(Cl)cc3)n2)cc1` [Example 211], the IC50 in test [1] is 3.4 µM; in test [2] (setting [3]) it was 5 µM.
The matching figures for `O=C(NCCCNC1CCCCC1)c1ccc(-c2csc(-c3ccc(Cl)cc3)n2)cc1` [Example 213]: 9.2 µM and 10 µM.
Turning to `CCCNCCCNC(=O)c1ccc(-c2csc(-c3ccc(C(F)(F)F)cc3)n2)cc1` [Example 221], the IC50 in test [1] is 5.8 µM. The inhibition at 20 µM in test [2] is 85%.
As for `CCCCNCCCNC(=O)c1ccc(-c2csc(-c3ccc(Cl)cc3)n2)cc1` [Example 224], the IC50 in test [1] is 3.3 µM; in test [2] (setting [3]) it was 6.1 µM.
Consider `CCCCNCCCNC(=O)c1ccc(-c2csc(-c3ccc(OC)cc3)n2)cc1` [Example 226], for which the values for the IC50 in test [1] and in test [2] (setting [3]) were 4.3 µM and 3.8 µM, respectively.

These data come from patent US5342851A, “Substituted thiazole derivatives useful as platelet aggregation inhibitors” (McNeil-PPC, Inc., priority 1992, dated 1994).
